Article PMC9518246, “Design and synthesis of new indole drug candidates to treat Alzheimer’s disease and targeting neuro-inflammation using a multi-target-directed ligand (MTDL) strategy” (Journal of Enzyme Inhibition and Medicinal Chemistry, 2022)

Tests used:
[1] = test system: COX-2 production in LPS-induced BV2 microglia cell lines; assay: COX-2 assessment in LPS-induced BV2 microglia (ELISA); assay type: cell-based
Method: Previously, it was reported that COX-2 is a key mediator in the inflammatory response and may play a role in neurodegeneration.
(§1) LPS was the used positive control.
For COX-2, all reagents, samples, and standards were prepared as Kit instructions, then 100 μl of standard or sample were added to each well, incubated 2.5 h at room temperature. Then 100 μl of prepared biotin antibody was added to each well, incubated an hour at room temperature. After that 100 μl of prepared Streptavidin solution was added. Then it was incubated for 45 min at room temperature. An aliquot of 100 μl TMB One-Step Substrate Reagent was added to each well, incubated 30 min at room temperature, 50 μL stop solution added to each well. Finally, the optical density was read at 450 nm immediately.

AChE = AChE (Homo sapiens, UniProt P22303); assay: biochemical; details: modified Ellman; read-out: AChE inhibitory activity IC50
Sequence of AChE (P22303 32-614): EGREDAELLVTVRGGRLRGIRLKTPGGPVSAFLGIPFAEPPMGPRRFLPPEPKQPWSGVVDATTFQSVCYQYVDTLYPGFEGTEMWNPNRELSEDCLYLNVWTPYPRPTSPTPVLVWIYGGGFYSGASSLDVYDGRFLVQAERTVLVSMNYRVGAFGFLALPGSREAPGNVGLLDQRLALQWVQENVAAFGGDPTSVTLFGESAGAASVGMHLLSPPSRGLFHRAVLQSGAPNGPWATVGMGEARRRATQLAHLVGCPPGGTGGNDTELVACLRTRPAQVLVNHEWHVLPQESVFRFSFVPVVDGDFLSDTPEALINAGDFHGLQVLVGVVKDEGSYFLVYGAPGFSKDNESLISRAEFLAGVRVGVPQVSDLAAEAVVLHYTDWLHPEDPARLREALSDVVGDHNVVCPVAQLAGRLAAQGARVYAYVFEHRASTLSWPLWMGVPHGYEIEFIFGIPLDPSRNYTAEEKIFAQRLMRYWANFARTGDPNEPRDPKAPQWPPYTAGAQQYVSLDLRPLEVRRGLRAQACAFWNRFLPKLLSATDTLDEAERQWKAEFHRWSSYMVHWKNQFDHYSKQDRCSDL
Method: (§2) The effects of twenty synthetic compounds were evaluated for AChE and BuChE inhibition using the modified method of Ellman et al.[33] […] AChE and BuChE are found in the brains of mammals. Genetically, structurally, and kinetically, the two kinds vary. In the human brain, BuChE is found in glial cells and neurons as well as in plaques and tangles in AD patients. […] BuChE may replace AChE by hydrolysing brain acetylcholine in some conditions, such as in mice nullizygote for AChE or in AD patients in advanced stages of the disease[34]^,[35].

BuChE = BuChE (Homo sapiens, UniProt P06276); assay: biochemical; details: modified Ellman; read-out: BuChE inhibitory activity IC50
Sequence of BuChE (P06276 29-602): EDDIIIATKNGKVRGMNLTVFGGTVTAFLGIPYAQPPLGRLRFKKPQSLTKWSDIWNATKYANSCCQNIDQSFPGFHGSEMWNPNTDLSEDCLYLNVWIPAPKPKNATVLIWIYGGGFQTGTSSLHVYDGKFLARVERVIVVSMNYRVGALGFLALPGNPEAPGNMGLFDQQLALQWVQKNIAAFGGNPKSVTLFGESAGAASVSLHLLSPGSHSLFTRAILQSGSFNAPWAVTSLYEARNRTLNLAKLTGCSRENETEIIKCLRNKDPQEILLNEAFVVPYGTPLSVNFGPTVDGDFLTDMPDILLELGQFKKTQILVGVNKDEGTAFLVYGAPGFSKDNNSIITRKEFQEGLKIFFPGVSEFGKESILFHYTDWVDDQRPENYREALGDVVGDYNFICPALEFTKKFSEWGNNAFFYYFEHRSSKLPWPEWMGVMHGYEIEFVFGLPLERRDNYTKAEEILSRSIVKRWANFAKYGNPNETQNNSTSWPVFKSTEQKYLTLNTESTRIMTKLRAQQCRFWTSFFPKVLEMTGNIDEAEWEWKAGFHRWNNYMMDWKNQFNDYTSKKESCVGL
Method: as §2

Aβ1–42 = target: T1, Aβ1–42 (Homo sapiens, UniProt P05067); assay: Inhibition of Aβ1-42 self-induced aggregation (BioVision ligand screening kit); assay type: biochemical; details: µM
T1 construct: purchased BioVision K570-100
T1 sequence (P05067 672-713 limits assumed): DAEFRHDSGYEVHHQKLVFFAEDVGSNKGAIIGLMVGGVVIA
From the text: Screening Aβ42 ligands that could prevent aggregation is critical for developing potential therapeutic treatments. In BioVision’s Beta-Amyloid 1–42 (Aβ42) Ligand Screening kit, a dye binds to the beta-sheets of an aggregated amyloid peptide resulting in an intense fluorescent product at wave length 450 nm using a BIOLINE ELISA reader. In the presence of an Aβ42 ligand, this reaction is impeded/abolished resulting in a decrease or total loss of fluorescence. This assay is useful in screening Aβ42 ligands for developing potential therapeutic agents against AD[42]. The assessment was performed according to BioVision’s Beta-Amyloid 1–42 (Aβ42) Ligand Screening Kit Catalog No. K570-100.

[2] = test system: IL-1β production in LPS-induced BV2 microglia cell lines; assay: IL-1β assessment in LPS-induced BV2 microglia (ELISA); assay type: cell-based
Method: IL-1β is a pro-inflammatory cytokines involved in the pathogenesis of AD[40]. So, activity of 5b and 6b derivatives were evaluated against LPS-induced BV2 microglia cell lines production of IL-1β. They induced a decrease in IL-1β level to about 5% and 48%, sequentially, as compared to a positive control (Figure 5).
as §1
For IL-1β, this assay employs the quantitative sandwich enzyme immunoassay technique. A monoclonal antibody specific for human IL-1β has been pre-coated onto a micro plate. Standards and samples are piped into the wells and any IL-1β present is bound by the immobilised antibody. After washing away any unbound substances, an enzyme-linked polyclonal antibody specific for human IL-1β is added to the wells. Following a wash to remove any unbound antibody-enzyme reagent, a substrate solution is added to the wells and colour develops in proportion to the amount of IL-1β bound in the initial step. The colour development is stopped and the intensity of the colour is measured, the method of assessment was performed as instructed in the IL-1 β R&D system ELISA kit (catalog No. DLB50).

[3] = test system: NO production in LPS-induced BV2 microglia cell lines; assay: Nitric oxide (NO) assessment in LPS-induced BV2 microglia; assay type: cell-based; details: positive control 6.42 pg/mL
Method: In AD, increased production of vascular NO, a highly neurotoxic mediator in the CNS, may contribute to the vulnerability of neurons to injury and cell death.
as §1
NO plays an important role in neurotransmission, vascular regulation, immune response, and apoptosis. NO is rapidly oxidised to nitrite and nitrate which are used to quantitate NO. NO was estimated using the Abcam ELISA kit (catalog No. ab65328). Briefly, enzyme was added to cell lysate, followed with cofactor and incubated at room temperature for 60 min, after that Griess reagent was added and incubated at room temperature for 10 min., finally optical density was measured at 540 nm.
Microglia cell Line, BV-2, human neuroblastoma (SH-SY5Y), and normal hepatic (THLE2) cells were obtained from American Type Culture Collection, cells were cultured using DMEM (Invitrogen/Life Technologies, Carlsbad, CA) supplemented with 10% FBS (Hyclone), 10 µg/mL of insulin (Sigma, St. Louis, MO), and 1% penicillin-streptomycin. All of the other chemicals and reagents were from Sigma, or Invitrogen. Plate cells (cells density 1.2 − 1.8 × 10,000 cells/well) in a volume of 100 µL complete growth medium + 100 µL of the tested compounds per well in a 96-well plate for 24 h before the MTT assay.

[4] = test system: TNF-α production in LPS-induced BV2 microglia cell lines; assay: TNF-α assessment in LPS-induced BV2 microglia (ELISA); assay type: cell-based
Method: TNF-α signalling exacerbates both Aβ and tau pathologies in vivo, according to several lines of evidence based on genetic and pharmacological modifications.
as §1
For TNF-α, cell lysate was used to assess TNF-α using the MyBioSource ELISA kit (Catalog No: MBS2502004). This assay employs the quantitative sandwich enzyme immunoassay technique. Briefly, 100 µl of the samples were added to each well. Incubate for 90 min at 37 °C, and immediately add 100 μl of Biotinylated Detection Ab working solution to each well. Incubate for 1 h at 37 °C, then add 350 µl of wash buffer to each well, 100 μl of HRP Conjugate working solution to each well was added, incubated for 30 min at 37 °C. Add 90 μl of Substrate Reagent to each well. Incubate for about 15 min at 37 °C. Then, 50 μl of Stop Solution was added to each well. Finally, the optical density of each well was detected at 450 nm.

IL-1β production = test system: IL-1β production; set-up: method as in PMID 21295616; details: read-out: suppression of IL-1β production IC50; cited from earlier work

Row | Structure (SMILES) | decrease in COX-2 levels as compared to a positive control [1] | IC50 (AChE) | IC50 (BuChE) | IC50 (Aβ1–42) | decrease in IL-1β level to about, as compared to a positive control [2] | NO level [3] | decrease in TNF-α levels to, compared to positive control [4] | IC50 (IL-1β production)
1 | CS(=O)(=O)n1cc(/C=C/C(=O)c2ccc(NC(=O)Cc3ccc(Cl)cc3)cc2)c2ccccc21 [Compound 5b, (E)-2–(4-Chlorophenyl)-N-{4-[3–(1-(methylsulfonyl)-1H-indol-3-yl)acryloyl]phenyl}acetamide] | about 20% | 0.0275 µM | 0.0369 µM | 2.5 µM | about 5% | 4.89 pg/mL | 53% | 
2 | CS(=O)(=O)n1cc(/C=C/C(=O)c2ccc(NC(=O)CN3CCC(Cc4ccccc4)CC3)cc2)c2ccccc21 [Compound 6b, (E)-2–(4-Benzylpiperidin-1-yl)-N-{4-[3–(1-(methylsulfonyl)-1H-indol-3-yl)acryloyl]phenyl}acetamide] | ~14% | 0.0493 µM | 0.0804 µM | 4.94 µM | ~48% | 4.46 pg/mL | 67% | 
3 | Cc1cc(-c2ccccc2)nnc1C(=O)N1CCN(c2ncccn2)CC1 [GIBH-130] |  |  |  |  |  |  |  | 0.0034 µM
